pIC50: −log10 of the molar value. A value given as a limit tells only on which side of the number the result lay.

This note sets out measurements from patent publication US20240408216A1, “PROTEIN INHIBITOR OR DEGRADING AGENT, PHARMACEUTICAL COMPOSITION CONTAINING SAME AND PHARMACEUTICAL USE” (JING MEDICINE TECHNOLOGY (SHANGHAI) LTD., priority 2021, published 2024).

T1 sequence (P00533 with tags, fused parts or gaps DEL746-750/C797S, form open): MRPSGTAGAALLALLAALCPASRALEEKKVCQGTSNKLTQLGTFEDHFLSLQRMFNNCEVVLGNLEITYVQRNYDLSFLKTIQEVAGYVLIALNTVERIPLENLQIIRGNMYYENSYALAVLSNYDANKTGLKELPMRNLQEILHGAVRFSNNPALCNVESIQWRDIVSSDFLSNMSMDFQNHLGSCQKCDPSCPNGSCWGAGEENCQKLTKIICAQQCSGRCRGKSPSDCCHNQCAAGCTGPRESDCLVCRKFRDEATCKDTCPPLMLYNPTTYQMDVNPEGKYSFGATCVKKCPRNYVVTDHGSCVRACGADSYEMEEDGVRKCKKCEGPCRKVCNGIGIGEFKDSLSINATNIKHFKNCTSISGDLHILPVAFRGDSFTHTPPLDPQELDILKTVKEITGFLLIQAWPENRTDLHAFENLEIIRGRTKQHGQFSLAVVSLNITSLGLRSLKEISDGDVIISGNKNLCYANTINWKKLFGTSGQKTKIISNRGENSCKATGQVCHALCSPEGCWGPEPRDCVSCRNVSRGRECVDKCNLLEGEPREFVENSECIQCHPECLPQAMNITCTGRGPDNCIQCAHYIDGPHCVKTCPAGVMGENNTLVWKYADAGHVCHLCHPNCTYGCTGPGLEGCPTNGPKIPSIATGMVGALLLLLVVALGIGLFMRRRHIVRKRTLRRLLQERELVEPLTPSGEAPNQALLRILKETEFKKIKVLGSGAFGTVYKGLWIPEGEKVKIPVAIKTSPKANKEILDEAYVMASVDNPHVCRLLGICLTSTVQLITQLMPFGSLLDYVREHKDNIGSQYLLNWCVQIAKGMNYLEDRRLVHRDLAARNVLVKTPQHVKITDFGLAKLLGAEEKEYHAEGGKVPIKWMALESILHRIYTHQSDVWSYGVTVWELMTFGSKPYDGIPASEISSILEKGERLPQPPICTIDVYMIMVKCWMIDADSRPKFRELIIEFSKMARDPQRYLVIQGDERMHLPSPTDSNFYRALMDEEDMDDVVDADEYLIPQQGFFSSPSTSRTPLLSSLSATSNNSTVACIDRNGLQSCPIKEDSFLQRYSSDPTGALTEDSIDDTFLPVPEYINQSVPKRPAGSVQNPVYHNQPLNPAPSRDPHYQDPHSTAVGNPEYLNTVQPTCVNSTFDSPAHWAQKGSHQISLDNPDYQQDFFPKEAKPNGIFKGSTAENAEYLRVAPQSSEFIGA

In one assay the test system is A431. Description: Cell proliferation IC50 assay (Cell Titer GLO), A431 cells. Type of assay: cell-based. Conditions: Homo sapiens, A-431, 72 h, read-out: A431 IC50 (nM). The method, then: (§1) IC50 of compounds in the present invention was determined by Cell Titer GLO reagent from Promega. The procedures are as follows:
(§2) Tumor cells were cultured in specified medium in an incubator at 37° C. and 5% CO2. The cells were passaged periodically. Cells at the logarithmic growth phase were collected for plating at a density of 2000-4000 cells/well. The next day, the compounds of the present invention were serially diluted and added to the cells, with DMSO being the negative control and the culture media without cells being the blank control. The plate was incubated in the incubator for 72 h. The cell viability assay was performed by adding the detection reagents to the cell culture media according to Cell Titer GLO reagent instructions and detecting luminescent signals on an EnVision microplate reader (PerkinElmer).
(§3) Inhibition of cell growth by the compounds of the present invention was plotted by Prism Graphpad software for statistically calculating the IC50 of the compound of the present invention.
A general note: ATP-based viability assays read luminescence as a measure of living cells.
For orientation: IC50 means the concentration that gives 50% inhibition. For `CCc1cc(Nc2ncc(-c3cnn(C)c3)c(Nc3ccccc3P(C)(C)=O)n2)c(OC)cc1N1CCC(N2CCN(CCN(C)c3ccc4c(c3)CN(C3CCC(=O)NC3=O)C4=O)CC2)CC1` (stereo not drawn) [Example E224], the IC50 was > 4000 nM.

The same assay, now with this note: Homo sapiens, A-431; Table 6; A431, 72 h; read-out: A431 IC50.
For orientation: pIC50 means the IC50 on a negative log10 scale, so that one unit is a factor of ten. Turning to `CCc1cc(Nc2ncc(-c3cc[nH]n3)c(Nc3ccccc3P(C)(C)=O)n2)c(OC)cc1N1CCC(N2CCN(CCOc3cccc4c3CN(C3CCC(=O)NC3=O)C4=O)CC2)CC1` (stereo not drawn) [Example E164], the pIC50 was < 5.40.
Same read-out and setting: for `CCc1cc(Nc2ncc(Cl)c(Nc3ccccc3P(C)(C)=O)n2)c(OC)cc1N1CCC(N2CCN(CCC#Cc3c(F)ccc4c3CN(C3CCC(=O)NC3=O)C4=O)CC2)CC1` (stereo not drawn) [Example E54] the value was 5.93; for `CCc1cc(Nc2ncc(Cl)c(Nc3ccccc3P(C)(C)=O)n2)c(OC)cc1N1CCC2(CCN(C(=O)COc3cccc4c3CN(C3CCC(=O)NC3=O)C4=O)CC2)CC1` (stereo not drawn) [Example E104], < 5.40.
The same measure, in the same setting: with `CCc1cc(Nc2ncc(Cl)c(Nc3ccccc3P(C)(C)=O)n2)c(OC)cc1N1CCC(N2CCN(CCNc3cccc4c3C(=O)N(C3CCC(=O)NC3=O)C4=O)CC2)CC1` (stereo not drawn) [Example E106] the figure was 5.86; with `CCc1cc(Nc2ncc(-c3cnn(C)c3)c(Nc3ccc(C)cc3P(C)(C)=O)n2)c(OC)cc1N1CCC(N2CCN(Cc3ccc4c(c3)CN(C3CCC(=O)NC3=O)C4=O)CC2)CC1` (stereo not drawn) [Example E216], < 5.40.

The next assay has as its target T1, BaF3 (EGFR Del19/C797S) (Homo sapiens, UniProt P00533, C797S, cells depend on it, form not given).
T1 construct: BaF3 (EGFR Del19/C797S)|DC|RPMI1640 + 10% FBS
Briefly: Cell proliferation IC50 assay (Cell Titer GLO), BaF3 DC cells. Type of assay: cell-based, mouse. Conditions: Table 6, 72 h. The method, then: as §1, §2, §3
For `CCc1cc(Nc2ncc(-c3cc[nH]n3)c(Nc3ccccc3P(C)(C)=O)n2)c(OC)cc1N1CCC(N2CCN(CCOc3cccc4c3CN(C3CCC(=O)NC3=O)C4=O)CC2)CC1` (stereo not drawn) [Example E164], the pIC50 is 8.11.
Still for that read-out and setting: with `CCc1cc(Nc2ncc(Cl)c(Nc3ccccc3P(C)(C)=O)n2)c(OC)cc1N1CCC(N2CCN(CCC#Cc3c(F)ccc4c3CN(C3CCC(=O)NC3=O)C4=O)CC2)CC1` (stereo not drawn) [Example E54] the figure was 7.69; with `CCc1cc(Nc2ncc(Cl)c(Nc3ccccc3P(C)(C)=O)n2)c(OC)cc1N1CCC2(CCN(C(=O)COc3cccc4c3CN(C3CCC(=O)NC3=O)C4=O)CC2)CC1` (stereo not drawn) [Example E104], 8.04; with `CCc1cc(Nc2ncc(Cl)c(Nc3ccccc3P(C)(C)=O)n2)c(OC)cc1N1CCC(N2CCN(CCNc3cccc4c3C(=O)N(C3CCC(=O)NC3=O)C4=O)CC2)CC1` (stereo not drawn) [Example E106], 7.77.
In the case of `CCc1cc(Nc2ncc(-c3cnn(C)c3)c(Nc3ccc(C)cc3P(C)(C)=O)n2)c(OC)cc1N1CCC(N2CCN(Cc3ccc4c(c3)CN(C3CCC(=O)NC3=O)C4=O)CC2)CC1` (stereo not drawn) [Example E216], the pIC50 was 9.00.
On the same count and under the same terms, with `CCc1cc(Nc2ncc(-c3cnn(C)c3)c(Nc3ccccc3P(C)(C)=O)n2)c(OC)cc1N1CCC(N2CCN(CCN(C)c3ccc4c(c3)CN(C3CCC(=O)NC3=O)C4=O)CC2)CC1` (stereo not drawn) [Example E224] the figure was 9.05.

The subject of a further assay is BaF3 (EGFR WT). Briefly: Cell proliferation IC50 assay (Cell Titer GLO), BaF3 WT cells. The format is cell-based. Conditions: Mus musculus, Ba/F3 EGFR, Table 6, 10 ng/ml EGF, 72 h. The method, then:
as §1, §2, §3
In the case of `CCc1cc(Nc2ncc(-c3cc[nH]n3)c(Nc3ccccc3P(C)(C)=O)n2)c(OC)cc1N1CCC(N2CCN(CCOc3cccc4c3CN(C3CCC(=O)NC3=O)C4=O)CC2)CC1` (stereo not drawn) [Example E164], the pIC50 was < 5.40.
Still for that read-out and setting: for `CCc1cc(Nc2ncc(Cl)c(Nc3ccccc3P(C)(C)=O)n2)c(OC)cc1N1CCC(N2CCN(CCC#Cc3c(F)ccc4c3CN(C3CCC(=O)NC3=O)C4=O)CC2)CC1` (stereo not drawn) [Example E54] the value was 6.45.
`CCc1cc(Nc2ncc(Cl)c(Nc3ccccc3P(C)(C)=O)n2)c(OC)cc1N1CCC2(CCN(C(=O)COc3cccc4c3CN(C3CCC(=O)NC3=O)C4=O)CC2)CC1` (stereo not drawn) [Example E104] had a pIC50 of 5.64.
In the case of `CCc1cc(Nc2ncc(Cl)c(Nc3ccccc3P(C)(C)=O)n2)c(OC)cc1N1CCC(N2CCN(CCNc3cccc4c3C(=O)N(C3CCC(=O)NC3=O)C4=O)CC2)CC1` (stereo not drawn) [Example E106], the pIC50 is < 5.40.
In turn, `CCc1cc(Nc2ncc(-c3cnn(C)c3)c(Nc3ccc(C)cc3P(C)(C)=O)n2)c(OC)cc1N1CCC(N2CCN(Cc3ccc4c(c3)CN(C3CCC(=O)NC3=O)C4=O)CC2)CC1` (stereo not drawn) [Example E216] had a pIC50 of 6.03.
The same measure, in the same setting: for `CCc1cc(Nc2ncc(-c3cnn(C)c3)c(Nc3ccccc3P(C)(C)=O)n2)c(OC)cc1N1CCC(N2CCN(CCN(C)c3ccc4c(c3)CN(C3CCC(=O)NC3=O)C4=O)CC2)CC1` (stereo not drawn) [Example E224] the value was 6.18.

A further assay deals with BaF3 (EGFR L858R/T790M/C797S). Description: Cell proliferation IC50 assay (Cell Titer GLO), BaF3 LTC cells. The note with it: Mus musculus, Ba/F3 EGFR, Table 6, 72 h. The format is cell-based. The method, then: as §1, §2, §3
On to `CCc1cc(Nc2ncc(-c3cc[nH]n3)c(Nc3ccccc3P(C)(C)=O)n2)c(OC)cc1N1CCC(N2CCN(CCOc3cccc4c3CN(C3CCC(=O)NC3=O)C4=O)CC2)CC1` (stereo not drawn) [Example E164], for which the pIC50 was < 5.40.
Take `CCc1cc(Nc2ncc(Cl)c(Nc3ccccc3P(C)(C)=O)n2)c(OC)cc1N1CCC(N2CCN(CCC#Cc3c(F)ccc4c3CN(C3CCC(=O)NC3=O)C4=O)CC2)CC1` (stereo not drawn) [Example E54]: the pIC50 is 7.29.
The compound `CCc1cc(Nc2ncc(Cl)c(Nc3ccccc3P(C)(C)=O)n2)c(OC)cc1N1CCC2(CCN(C(=O)COc3cccc4c3CN(C3CCC(=O)NC3=O)C4=O)CC2)CC1` (stereo not drawn) [Example E104] showed a pIC50 of 7.36.
Compound `CCc1cc(Nc2ncc(Cl)c(Nc3ccccc3P(C)(C)=O)n2)c(OC)cc1N1CCC(N2CCN(CCNc3cccc4c3C(=O)N(C3CCC(=O)NC3=O)C4=O)CC2)CC1` (stereo not drawn) [Example E106] had a pIC50 of 6.65.
Still for that read-out and setting: with `CCc1cc(Nc2ncc(-c3cnn(C)c3)c(Nc3ccc(C)cc3P(C)(C)=O)n2)c(OC)cc1N1CCC(N2CCN(Cc3ccc4c(c3)CN(C3CCC(=O)NC3=O)C4=O)CC2)CC1` (stereo not drawn) [Example E216] the figure was < 5.40; with `CCc1cc(Nc2ncc(-c3cnn(C)c3)c(Nc3ccccc3P(C)(C)=O)n2)c(OC)cc1N1CCC(N2CCN(CCN(C)c3ccc4c(c3)CN(C3CCC(=O)NC3=O)C4=O)CC2)CC1` (stereo not drawn) [Example E224], < 5.40.
